Assay results published in patent US20240293558A1, “KRAS INHIBITOR CONJUGATES” (Erasca, Inc., priority 2021, published 2024).
pIC50: −log10 of the molar value.

Columns and labels:
KRAS G12D = KRAS G12D (Homo sapiens, UniProt P01116, G12D); test: In-vitro RAS-RAF binding assay (RRB), HTRF/FRET; assay type: biochemical; parameters: Biotinylated KRAS protein amino acids 1-169 (produced at Erasca); made in house; details: Table 2, average of multiple runs of each compound; read-out: Inhibition of RAS-RAF Binding (in-vitro) KRAS (G12D) IC50
Outline: (§1)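 Compounds preincubated with terbium-labelled biotinylated KRAS (aa 1-169, 30 nM) before 60 min SOS1-catalysed exchange to GTPgS. Binding of the d2-labelled cRAF RBD (30 nM) is read as FRET at equilibrium in duplicate. Buffer: 50 mM HEPES pH 7.5, 100 mM NaCl, 1 mM MgCl2, 1 mM DTT.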

KRAS (WT) = target: T1, KRAS (WT) (Homo sapiens, UniProt P01116); test: In-vitro RAS-RAF binding assay (RRB), HTRF/FRET; assay type: biochemical; details: Table 2, average of multiple runs of each compound; read-out: Inhibition of RAS-RAF Binding (in-vitro) KRAS (WT) IC50
T1 construct: Biotinylated KRAS protein amino acids 1-169 (produced at Erasca); made in house
Outline: as §1

T1 sequence (P01116 1-169 isoform P01116-2): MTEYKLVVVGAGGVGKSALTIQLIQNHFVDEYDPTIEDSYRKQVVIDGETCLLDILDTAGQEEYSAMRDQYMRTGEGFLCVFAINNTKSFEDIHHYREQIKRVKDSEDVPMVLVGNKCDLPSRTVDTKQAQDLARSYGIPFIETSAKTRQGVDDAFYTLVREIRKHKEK
KRAS G12D, sequence (P01116 1-169 isoform P01116-2 G12D): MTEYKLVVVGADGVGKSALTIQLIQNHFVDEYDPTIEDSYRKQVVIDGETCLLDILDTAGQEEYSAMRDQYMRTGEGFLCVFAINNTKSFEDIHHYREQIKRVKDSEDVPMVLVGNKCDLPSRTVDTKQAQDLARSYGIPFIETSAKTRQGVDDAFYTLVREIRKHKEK

| pIC50 (KRAS G12D) | pIC50 (KRAS (WT)) | Compound |
| --- | --- | --- |
| 7.70 | ≤ 5.00 | CC(C)[C@@H](C(=O)N1C[C@H](O)C[C@H]1C(=O)N[C@@H](C)c1ccc(-c2c(F)cccc2F)cc1)c1cc(OCC2(C)CCN(CCOc3nc(N4CC5CCC(C4)N5)c4cc(Cl)c(-c5ccc(F)c6sc(N)c(C#N)c56)c(F)c4n3)CC2)no1 [Example 66, (2S,4R)-1-((2R)-2-(3-((1-(2-((7-(2-amino-3-cyano-7-fluorobenzo[b]thiophen-4-yl)-4-(3,8-diazabicyclo[3.2.1]octan-3-yl)-6-chloro-8-fluoroquinazolin-2-yl)oxy)ethyl)-4-methylpiperidin-4-yl)methoxy)isoxazol-5-yl)-3-methylbutanoyl)-N-((S)-1-(2′,6′-difluoro-[1,1′-biphenyl]-4-yl)ethyl)-4-hydroxypyrrolidine-2-carboxamide] |
| < 5.00 | < 5.00 | C[C@H](NC(=O)[C@@H]1C[C@@H](O)CN1C(=O)[C@@H](NC(=O)CCOCCCN1CCC[C@H]1COc1nc(N2CC3CCC(C2)N3)c2cc(C(F)(F)F)c(-c3ccc(F)c4sc(N)c(C#N)c34)c(F)c2n1)C(C)(C)C)c1ccc(-c2c(F)cccc2F)cc1 [Example 79, (2S,4R)-1-((2S)-2-(3-(3-((2S)-2-((((7R)-7-(2-amino-3-cyano-7-fluorobenzo[b]thiophen-4-yl)-4-(3,8-diazabicyclo[3.2.1]octan-3-yl)-8-fluoro-6-(trifluoromethyl)quinazolin-2-yl)oxy)methyl)pyrrolidin-1-yl)propoxy)propanamido)-3,3-dimethylbutanoyl)-N-((S)-1-(2′,6′-difluoro-[1,1′-biphenyl]-4-yl)ethyl)-4-hydroxypyrrolidine-2-carboxamide] |
| 7.86 | 7.20 | Cc1ncsc1-c1ccc([C@H](C)NC(=O)[C@@H]2C[C@@H](O)CN2C(=O)[C@@H](NC(=O)CCOCCCN2CCC[C@H]2COc2nc(N3CC4CCC(C3)N4)c3cc(C(F)(F)F)c(-c4ccc(F)c5sc(N)c(C#N)c45)cc3n2)C(C)(C)C)cc1 [Example 80, (2S,4R)-1-((2S)-2-(3-(3-((2S)-2-(((7-(2-amino-3-cyano-7-fluorobenzo[b]thiophen-4-yl)-4-(3,8-diazabicyclo[3.2.1]octan-3-yl)-6-(trifluoromethyl)quinazolin-2-yl)oxy)methyl)pyrrolidin-1-yl)propoxy)propanamido)-3,3-dimethylbutanoyl)-4-hydroxy-N-((S)-1-(4-(4-methylthiazol-5-yl)phenyl)ethyl)pyrrolidine-2-carboxamide] |
| 8.07 | 6.52 | Cc1ncsc1-c1ccc([C@H](C)NC(=O)[C@@H]2C[C@@H](O)CN2C(=O)[C@@H](NC(=O)CCCCN2CCC[C@H]2COc2nc(N3CC4CCC(C3)N4)c3cnc(-c4cc(O)cc5cccc(F)c45)c(F)c3n2)C(C)(C)C)cc1 [Example 82, (2S,4R)-1-((2S)-2-(5-((2S)-2-(((4-(3,8-diazabicyclo[3.2.1]octan-3-yl)-8-fluoro-7-(8-fluoro-3-hydroxynaphthalen-1-yl)pyrido[4,3-d]pyrimidin-2-yl)oxy)methyl)pyrrolidin-1-yl)pentanamido)-3,3-dimethylbutanoyl)-4-hydroxy-N-((S)-1-(4-(4-methylthiazol-5-yl)phenyl)ethyl)pyrrolidine-2-carboxamide] |
| 8.11 | 6.32 | C[C@H](NC(=O)[C@@H]1C[C@@H](O)CN1C(=O)[C@@H](NC(=O)CCCCN1CCC[C@H]1COc1nc(N2CC3CCC(C2)N3)c2cnc(-c3cc(O)cc4cccc(F)c34)c(F)c2n1)C(C)(C)C)c1ccc(-c2ccccc2)cc1 [Example 83, (2S,4R)-1-((2S)-2-(5-((2S)-2-(((4-(3,8-diazabicyclo[3.2.1]octan-3-yl)-8-fluoro-7-(8-fluoro-3-hydroxynaphthalen-1-yl)pyrido[4,3-d]pyrimidin-2-yl)oxy)methyl)pyrrolidin-1-yl)pentanamido)-3,3-dimethylbutanoyl)-N-((S)-1-([1,1′-biphenyl]-4-yl)ethyl)-4-hydroxypyrrolidine-2-carboxamide] |
| 7.89 | 7.16 | Cc1ncsc1-c1ccc([C@H](C)NC(=O)[C@@H]2C[C@@H](O)CN2C(=O)[C@@H](NC(=O)CCCCN2CCC[C@H]2COc2nc(N3CC4CCC(C3)N4)c3cc(Cl)c(-c4ccc(F)c5sc(N)c(C#N)c45)c(F)c3n2)C(C)(C)C)cc1 [Example 84, (2S,4R)-1-((2S)-2-(5-((2S)-2-(((7-(2-amino-3-cyano-7-fluorobenzo[b]thiophen-4-yl)-4-(3,8-diazabicyclo[3.2.1]octan-3-yl)-6-chloro-8-fluoroquinazolin-2-yl)oxy)methyl)pyrrolidin-1-yl)pentanamido)-3,3-dimethylbutanoyl)-4-hydroxy-N-((S)-1-(4-(4-methylthiazol-5-yl)phenyl)ethyl)pyrrolidine-2-carboxamide] |
| 8.04 | 6.25 | C[C@H](NC(=O)[C@@H]1C[C@@H](O)CN1C(=O)[C@@H](NC(=O)CCCCN1CCC[C@H]1COc1nc(N2CC3CCC(C2)N3)c2cnc(-c3cc(O)cc4cccc(F)c34)c(F)c2n1)C(C)(C)C)c1ccc(-c2cccc(F)c2)cc1 [Example 86, (2S,4R)-1-((2S)-2-(5-((2S)-2-(((4-(3,8-diazabicyclo[3.2.1]octan-3-yl)-8-fluoro-7-(8-fluoro-3-hydroxynaphthalen-1-yl)pyrido[4,3-d]pyrimidin-2-yl)oxy)methyl)pyrrolidin-1-yl)pentanamido)-3,3-dimethylbutanoyl)-N-((S)-1-(3′-fluoro-[1,1′-biphenyl]-4-yl)ethyl)-4-hydroxypyrrolidine-2-carboxamide] |
| 7.79 | 7.20 | Cc1ncsc1-c1ccc([C@H](CO)NC(=O)[C@@H]2C[C@@H](O)CN2C(=O)[C@@H](NC(=O)CCCCN2CCC[C@H]2COc2nc(N3CC4CCC(C3)N4)c3cc(Cl)c(-c4ccc(F)c5sc(N)c(C#N)c45)c(F)c3n2)C(C)(C)C)cc1 [Example 88, (2S,4R)-1-((2S)-2-(5-((2S)-2-(((7-(2-amino-3-cyano-7-fluorobenzo[b]thiophen-4-yl)-4-(3,8-diazabicyclo[3.2.1]octan-3-yl)-6-chloro-8-fluoroquinazolin-2-yl)oxy)methyl)pyrrolidin-1-yl)pentanamido)-3,3-dimethylbutanoyl)-4-hydroxy-N-((R)-2-hydroxy-1-(4-(4-methylthiazol-5-yl)phenyl)ethyl)pyrrolidine-2-carboxamide] |
| 7.82 | 7.18 | Cc1ncsc1-c1ccc([C@H](C)NC(=O)[C@@H]2C[C@@H](O)CN2C(=O)[C@@H](NC(=O)CCCCN2CCC[C@H]2COc2nc(N3CC4CCC(C3)N4)c3cc(Cl)c(-c4ccc(F)c5sc(N)c(C#N)c45)c(F)c3n2)C(C)(C)C)cc1 [Example 89, (2S,4R)-1-((2S)-2-(5-((2S)-2-(((7-(2-amino-3-cyano-7-fluorobenzo[b]thiophen-4-yl)-4-(3,8-diazabicyclo[3.2.1]octan-3-yl)-6-chloro-8-fluoroquinazolin-2-yl)oxy)methyl)pyrrolidin-1-yl)pentanamido)-3,3-dimethylbutanoyl)-4-hydroxy-N-((S)-1-(4-(4-methylthiazol-5-yl)phenyl)ethyl)pyrrolidine-2-carboxamide] |
| 7.89 | 7.37 | Cc1ncsc1-c1ccc([C@H](C)NC(=O)[C@@H]2C[C@@H](O)CN2C(=O)[C@@H](NC(=O)CCCCN2CCC[C@H]2COc2nc(N3CC4CCC(C3)N4)c3cc(C(F)(F)F)c(-c4ccc(F)c5sc(N)c(C#N)c45)c(F)c3n2)C(C)(C)C)cc1 [Example 90, (2S,4R)-1-((2S)-2-(5-((2S)-2-(((7-(2-amino-3-cyano-7-fluorobenzo[b]thiophen-4-yl)-4-(3,8-diazabicyclo[3.2.1]octan-3-yl)-8-fluoro-6-(trifluoromethyl)quinazolin-2-yl)oxy)methyl)pyrrolidin-1-yl)pentanamido)-3,3-dimethylbutanoyl)-4-hydroxy-N-((S)-1-(4-(4-methylthiazol-5-yl)phenyl)ethyl)pyrrolidine-2-carboxamide] |
